Literature values, collected in patent US20090092692A1, “The use of onion extracts to prevent and treat acute and chronic cardiac and vascular complications and their sequelae, as well as to resolve hematomas” (priority 2007, published 2009).

Test system: platelet
Conditions: low doses of aspirin, vasoocclusive disease

CC(=O)Oc1ccccc1C(=O)O [aspirin, Acetyl salicylic acid]
incidence of major haemorrhage: less than 1%
major outcome (death or further MI): approximately 60%
